Results: ChEMBL document CHEMBL5131517 (ACS Med Chem Lett, 2022)
pEC50, pKi: −log10 of the molar value.

Experiments:
[1] = molecular target: T1, Alpha-1D adrenergic receptor (Homo sapiens) (UniProt P25100); assay: Inhibition of alpha1D receptor (unknown origin); conditions: concentration not given here
T1 sequence (whole entry): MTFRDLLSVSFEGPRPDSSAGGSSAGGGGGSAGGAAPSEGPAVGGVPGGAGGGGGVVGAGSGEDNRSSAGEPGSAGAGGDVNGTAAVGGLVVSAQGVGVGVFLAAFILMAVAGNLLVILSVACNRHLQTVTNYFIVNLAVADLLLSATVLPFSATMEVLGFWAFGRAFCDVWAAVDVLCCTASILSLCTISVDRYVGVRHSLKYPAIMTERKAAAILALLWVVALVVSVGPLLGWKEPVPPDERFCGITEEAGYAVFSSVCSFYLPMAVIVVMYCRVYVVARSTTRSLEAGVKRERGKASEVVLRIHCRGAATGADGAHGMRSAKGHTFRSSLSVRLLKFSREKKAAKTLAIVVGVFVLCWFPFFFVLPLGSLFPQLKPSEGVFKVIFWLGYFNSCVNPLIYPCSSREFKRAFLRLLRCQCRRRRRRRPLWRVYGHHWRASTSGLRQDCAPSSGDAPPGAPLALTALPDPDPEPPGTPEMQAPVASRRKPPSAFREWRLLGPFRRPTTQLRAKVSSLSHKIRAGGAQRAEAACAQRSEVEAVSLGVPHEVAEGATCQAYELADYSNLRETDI

[2] = molecular target: T2, 5-hydroxytryptamine receptor 2A (Homo sapiens, UniProt P28223); assay: Agonist activity at human 5HT2A receptor stably expressed in Flp-In-T-REx-293 cells assessed as maximal Gq-mediated calcium flux by Fluo-4 direct dye based FLIPR Tetra assay relative to control; assay type: functional, cell-based; conditions: filed as agonist
[3] = molecular target: D(2) dopamine receptor (Homo sapiens) (UniProt P14416); assay: Inhibition of D2 receptor (unknown origin); conditions: concentration not given here
[4] = molecular target: 5-hydroxytryptamine receptor 7 (Homo sapiens, UniProt P34969); assay: Binding affinity to 5HT7 receptor (unknown origin) assessed as inhibition constant
[5] = molecular target: T2, 5-hydroxytryptamine receptor 2A; assay: Binding affinity to 5HT2A receptor (unknown origin) assessed as inhibition constant
[6] = molecular target: 5-hydroxytryptamine receptor 1B (Homo sapiens, UniProt P28222); assay: Binding affinity to 5HT1B receptor (unknown origin) assessed as inhibition constant
[7] = molecular target: D(1B) dopamine receptor (Homo sapiens) (UniProt P21918); assay: Inhibition of D5 receptor (unknown origin); conditions: concentration not given here
[8] = molecular target: T3, 5-hydroxytryptamine receptor 2C (Homo sapiens) (UniProt P28335); assay: Agonist activity at human 5HT2C receptor stably expressed in Flp-In-T-REx-293 cells assessed as maximal Gq-mediated calcium flux by Fluo-4 direct dye based FLIPR Tetra assay relative to control; assay type: functional, cell-based; conditions: filed as agonist
T3 sequence (whole entry): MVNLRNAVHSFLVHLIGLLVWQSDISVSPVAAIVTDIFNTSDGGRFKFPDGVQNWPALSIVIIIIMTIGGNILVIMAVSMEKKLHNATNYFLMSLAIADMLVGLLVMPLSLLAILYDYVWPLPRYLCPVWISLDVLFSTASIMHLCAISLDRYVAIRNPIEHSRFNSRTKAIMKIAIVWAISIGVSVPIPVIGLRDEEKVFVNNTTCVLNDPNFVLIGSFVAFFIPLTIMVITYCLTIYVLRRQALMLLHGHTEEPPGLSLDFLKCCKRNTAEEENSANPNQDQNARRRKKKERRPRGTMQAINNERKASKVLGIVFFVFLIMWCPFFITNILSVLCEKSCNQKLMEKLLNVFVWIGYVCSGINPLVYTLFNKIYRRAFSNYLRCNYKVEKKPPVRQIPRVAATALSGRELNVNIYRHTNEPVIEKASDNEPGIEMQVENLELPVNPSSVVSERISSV

[9] = molecular target: Beta-3 adrenergic receptor (Homo sapiens) (UniProt P13945); assay: Inhibition of beta 3 receptor (unknown origin); conditions: concentration not given here
[10] = molecular target: Delta-type opioid receptor (Homo sapiens) (UniProt P41143); assay: Inhibition of DOR receptor (unknown origin); conditions: concentration not given here
[11] = molecular target: T4, 5-hydroxytryptamine receptor 2C (Homo sapiens, UniProt P28335); assay: Agonist activity at human 5HT2C receptor stably expressed in Flp-In-T-REx-293 cells assessed as increase in Gq-mediated calcium flux by Fluo-4 direct dye based FLIPR Tetra assay; assay type: functional, cell-based; conditions: read-out: EC50
T4 sequence (P28335 whole entry): T3 sequence (whole entry)

[12] = molecular target: Sodium-dependent dopamine transporter (Homo sapiens) (UniProt Q01959); assay: Inhibition of DAT receptor (unknown origin); conditions: concentration not given here
[13] = molecular target: Histamine H2 receptor (Homo sapiens) (UniProt P25021); assay: Inhibition of H2 receptor (unknown origin); conditions: concentration not given here
[14] = molecular target: Histamine H4 receptor (Homo sapiens) (UniProt Q9H3N8); assay: Inhibition of H4 receptor (unknown origin); conditions: concentration not given here
[15] = molecular target: Sigma intracellular receptor 2 (Homo sapiens, UniProt Q5BJF2); assay: Inhibition of sigma 2 receptor (unknown origin); conditions: concentration not given here
[16] = molecular target: T5, Muscarinic acetylcholine receptor M5 (Homo sapiens) (UniProt P08912); assay: Inhibition of M5 receptor (unknown origin); conditions: concentration not given here
T5 sequence (whole entry): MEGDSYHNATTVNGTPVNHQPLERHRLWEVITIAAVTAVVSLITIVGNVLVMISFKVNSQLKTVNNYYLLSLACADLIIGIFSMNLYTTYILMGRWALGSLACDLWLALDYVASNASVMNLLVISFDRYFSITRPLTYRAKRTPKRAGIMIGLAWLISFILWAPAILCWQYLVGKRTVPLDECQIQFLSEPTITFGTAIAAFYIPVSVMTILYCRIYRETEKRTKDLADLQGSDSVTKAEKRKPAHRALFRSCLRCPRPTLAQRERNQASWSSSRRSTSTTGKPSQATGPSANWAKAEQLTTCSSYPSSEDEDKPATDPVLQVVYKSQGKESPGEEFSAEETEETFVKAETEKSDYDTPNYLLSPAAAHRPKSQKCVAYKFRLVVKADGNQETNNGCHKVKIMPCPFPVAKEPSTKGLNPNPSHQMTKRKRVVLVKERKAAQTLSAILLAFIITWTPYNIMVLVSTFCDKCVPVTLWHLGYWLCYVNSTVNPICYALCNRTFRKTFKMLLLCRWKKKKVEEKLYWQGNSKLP

Homo sapiens = organism: Homo sapiens; assay: Inhibition of BZP receptor (unknown origin); conditions: concentration not given here
[17] = molecular target: 5-hydroxytryptamine receptor 5A (Homo sapiens, UniProt P47898); assay: Binding affinity to 5HT5A receptor (unknown origin) assessed as inhibition constant
[18] = molecular target: 5-hydroxytryptamine receptor 6 (Homo sapiens, UniProt P50406); assay: Binding affinity to 5HT6 receptor (unknown origin) assessed as inhibition constant
[19] = molecular target: Translocator protein (Homo sapiens) (UniProt P30536); assay: Inhibition of peripheral benzodiazepine receptor (unknown origin); conditions: concentration not given here
Chain of Translocator protein (Homo sapiens) (P30536 whole entry): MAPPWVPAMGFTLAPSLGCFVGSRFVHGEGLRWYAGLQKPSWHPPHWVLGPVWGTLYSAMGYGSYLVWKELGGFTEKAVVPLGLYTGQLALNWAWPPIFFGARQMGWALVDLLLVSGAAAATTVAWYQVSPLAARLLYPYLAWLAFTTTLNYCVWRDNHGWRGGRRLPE

Chain of D(2) dopamine receptor (Homo sapiens) (P14416 whole entry): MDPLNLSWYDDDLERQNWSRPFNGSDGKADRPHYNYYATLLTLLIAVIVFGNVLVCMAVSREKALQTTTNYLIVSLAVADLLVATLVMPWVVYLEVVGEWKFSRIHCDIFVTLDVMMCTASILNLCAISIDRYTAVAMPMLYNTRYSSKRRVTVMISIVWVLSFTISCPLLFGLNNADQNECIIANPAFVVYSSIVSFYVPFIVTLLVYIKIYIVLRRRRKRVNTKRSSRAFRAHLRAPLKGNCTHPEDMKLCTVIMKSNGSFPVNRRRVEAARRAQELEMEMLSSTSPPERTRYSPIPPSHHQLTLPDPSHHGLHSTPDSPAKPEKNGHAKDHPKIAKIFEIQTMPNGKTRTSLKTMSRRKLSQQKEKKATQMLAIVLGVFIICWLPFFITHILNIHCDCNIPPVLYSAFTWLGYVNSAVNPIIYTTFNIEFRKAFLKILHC
Chain of Sigma intracellular receptor 2 (Q5BJF2 whole entry): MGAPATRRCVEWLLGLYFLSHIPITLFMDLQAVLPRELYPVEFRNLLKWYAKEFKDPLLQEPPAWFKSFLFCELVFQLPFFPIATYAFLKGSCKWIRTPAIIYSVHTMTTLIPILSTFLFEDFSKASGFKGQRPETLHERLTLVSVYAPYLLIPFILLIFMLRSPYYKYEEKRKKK
Chain of D(1B) dopamine receptor (Homo sapiens) (P21918 whole entry): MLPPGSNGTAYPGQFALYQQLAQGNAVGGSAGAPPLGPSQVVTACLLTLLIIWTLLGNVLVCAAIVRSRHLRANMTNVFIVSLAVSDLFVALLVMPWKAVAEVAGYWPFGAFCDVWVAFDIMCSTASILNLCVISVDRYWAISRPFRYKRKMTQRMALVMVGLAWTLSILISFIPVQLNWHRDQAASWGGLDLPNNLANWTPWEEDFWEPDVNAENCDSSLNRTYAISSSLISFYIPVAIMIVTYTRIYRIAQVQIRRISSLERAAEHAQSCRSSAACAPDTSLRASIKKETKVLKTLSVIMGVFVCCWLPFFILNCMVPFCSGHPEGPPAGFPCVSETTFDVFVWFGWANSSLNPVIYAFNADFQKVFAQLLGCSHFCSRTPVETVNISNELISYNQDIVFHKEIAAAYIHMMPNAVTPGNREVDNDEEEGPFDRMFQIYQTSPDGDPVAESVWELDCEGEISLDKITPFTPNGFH
T2 sequence (P28223 whole entry): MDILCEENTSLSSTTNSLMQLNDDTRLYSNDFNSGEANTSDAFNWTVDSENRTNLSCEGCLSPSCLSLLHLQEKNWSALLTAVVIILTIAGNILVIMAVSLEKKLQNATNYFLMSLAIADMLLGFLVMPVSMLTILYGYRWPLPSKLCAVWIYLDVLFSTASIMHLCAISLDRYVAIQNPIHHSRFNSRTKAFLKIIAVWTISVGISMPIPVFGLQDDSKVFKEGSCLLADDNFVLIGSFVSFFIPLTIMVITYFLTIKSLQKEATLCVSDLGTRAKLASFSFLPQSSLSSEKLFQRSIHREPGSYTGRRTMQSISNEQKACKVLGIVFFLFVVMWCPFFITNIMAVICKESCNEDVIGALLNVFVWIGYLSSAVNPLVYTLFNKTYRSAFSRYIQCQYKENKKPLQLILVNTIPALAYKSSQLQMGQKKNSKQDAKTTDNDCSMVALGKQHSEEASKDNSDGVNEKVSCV
Chain of 5-hydroxytryptamine receptor 7 (P34969 whole entry): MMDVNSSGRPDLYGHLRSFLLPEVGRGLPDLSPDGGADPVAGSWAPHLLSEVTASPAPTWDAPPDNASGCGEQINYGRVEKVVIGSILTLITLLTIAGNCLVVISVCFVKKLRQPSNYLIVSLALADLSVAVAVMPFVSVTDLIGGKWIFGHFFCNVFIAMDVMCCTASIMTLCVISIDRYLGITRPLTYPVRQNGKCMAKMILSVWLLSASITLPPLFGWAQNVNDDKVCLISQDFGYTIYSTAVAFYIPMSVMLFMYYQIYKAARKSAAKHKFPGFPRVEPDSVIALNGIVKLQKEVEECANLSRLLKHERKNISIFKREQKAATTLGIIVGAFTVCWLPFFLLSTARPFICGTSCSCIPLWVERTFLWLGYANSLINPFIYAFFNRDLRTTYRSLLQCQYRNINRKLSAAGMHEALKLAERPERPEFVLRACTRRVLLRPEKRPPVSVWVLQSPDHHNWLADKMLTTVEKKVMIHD
Chain of 5-hydroxytryptamine receptor 5A (P47898 whole entry): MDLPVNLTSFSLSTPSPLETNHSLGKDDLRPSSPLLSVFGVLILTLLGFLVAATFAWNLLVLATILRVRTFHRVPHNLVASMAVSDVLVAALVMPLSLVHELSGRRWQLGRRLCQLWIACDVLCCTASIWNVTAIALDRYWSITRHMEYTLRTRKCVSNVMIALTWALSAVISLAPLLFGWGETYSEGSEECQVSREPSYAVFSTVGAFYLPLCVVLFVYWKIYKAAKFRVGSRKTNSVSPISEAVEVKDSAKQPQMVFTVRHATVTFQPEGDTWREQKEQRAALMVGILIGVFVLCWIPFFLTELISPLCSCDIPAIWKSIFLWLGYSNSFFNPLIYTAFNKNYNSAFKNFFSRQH
Chain of Delta-type opioid receptor (Homo sapiens) (P41143 whole entry): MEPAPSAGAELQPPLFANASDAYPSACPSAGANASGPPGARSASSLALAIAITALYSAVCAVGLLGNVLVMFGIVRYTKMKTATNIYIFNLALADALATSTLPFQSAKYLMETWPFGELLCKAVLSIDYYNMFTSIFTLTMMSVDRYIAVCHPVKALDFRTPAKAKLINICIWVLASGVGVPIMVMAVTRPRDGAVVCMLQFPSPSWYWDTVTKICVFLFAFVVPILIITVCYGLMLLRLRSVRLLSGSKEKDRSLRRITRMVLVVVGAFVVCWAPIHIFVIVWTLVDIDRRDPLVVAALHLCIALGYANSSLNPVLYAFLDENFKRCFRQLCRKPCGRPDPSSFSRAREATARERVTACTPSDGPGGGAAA
Chain of 5-hydroxytryptamine receptor 1B (P28222 whole entry): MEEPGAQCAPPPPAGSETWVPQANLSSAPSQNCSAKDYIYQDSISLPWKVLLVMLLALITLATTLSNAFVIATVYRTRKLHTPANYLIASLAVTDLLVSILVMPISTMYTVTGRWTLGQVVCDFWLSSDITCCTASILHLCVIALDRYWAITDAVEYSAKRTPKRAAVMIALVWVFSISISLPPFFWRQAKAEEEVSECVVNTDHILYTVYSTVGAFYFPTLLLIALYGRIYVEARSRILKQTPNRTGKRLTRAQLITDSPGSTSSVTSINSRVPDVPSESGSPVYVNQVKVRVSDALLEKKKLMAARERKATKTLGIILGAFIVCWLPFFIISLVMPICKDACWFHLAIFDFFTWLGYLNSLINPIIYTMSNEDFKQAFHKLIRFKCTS
Chain of Histamine H2 receptor (Homo sapiens) (P25021 whole entry): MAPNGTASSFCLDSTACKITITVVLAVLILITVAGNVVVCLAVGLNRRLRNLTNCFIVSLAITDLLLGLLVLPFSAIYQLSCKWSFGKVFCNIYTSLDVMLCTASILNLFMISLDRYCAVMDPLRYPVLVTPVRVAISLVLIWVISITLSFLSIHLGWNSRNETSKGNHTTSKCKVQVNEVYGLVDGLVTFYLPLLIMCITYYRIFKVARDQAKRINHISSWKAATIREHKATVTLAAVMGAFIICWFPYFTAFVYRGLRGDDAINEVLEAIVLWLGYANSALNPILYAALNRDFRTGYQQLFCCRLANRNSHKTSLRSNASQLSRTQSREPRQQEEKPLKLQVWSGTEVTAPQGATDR
Chain of Beta-3 adrenergic receptor (Homo sapiens) (P13945 whole entry, looked up): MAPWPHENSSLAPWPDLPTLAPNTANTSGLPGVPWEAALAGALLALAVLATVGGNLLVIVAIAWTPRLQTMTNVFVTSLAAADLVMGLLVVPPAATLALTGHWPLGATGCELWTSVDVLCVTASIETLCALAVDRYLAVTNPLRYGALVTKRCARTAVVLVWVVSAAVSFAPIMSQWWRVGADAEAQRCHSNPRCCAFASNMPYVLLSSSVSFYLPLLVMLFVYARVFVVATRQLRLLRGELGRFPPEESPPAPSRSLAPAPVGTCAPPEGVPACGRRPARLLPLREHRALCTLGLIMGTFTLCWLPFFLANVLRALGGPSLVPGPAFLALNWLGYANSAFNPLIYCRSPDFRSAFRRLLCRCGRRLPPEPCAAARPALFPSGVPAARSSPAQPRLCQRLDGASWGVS
Chain of 5-hydroxytryptamine receptor 6 (P50406 whole entry): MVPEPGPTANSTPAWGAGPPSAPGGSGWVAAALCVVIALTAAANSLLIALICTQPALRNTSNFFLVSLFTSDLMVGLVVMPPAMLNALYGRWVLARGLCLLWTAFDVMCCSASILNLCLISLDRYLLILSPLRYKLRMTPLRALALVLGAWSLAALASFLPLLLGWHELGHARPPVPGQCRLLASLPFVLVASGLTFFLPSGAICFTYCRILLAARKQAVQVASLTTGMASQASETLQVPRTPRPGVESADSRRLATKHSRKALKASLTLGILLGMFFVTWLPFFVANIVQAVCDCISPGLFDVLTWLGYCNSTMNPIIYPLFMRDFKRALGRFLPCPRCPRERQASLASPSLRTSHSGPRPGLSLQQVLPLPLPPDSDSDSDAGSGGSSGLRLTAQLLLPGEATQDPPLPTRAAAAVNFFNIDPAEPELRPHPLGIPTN

Row | inhibition [1] | Emax [2] | inhibition [3] | pKi [4] | pKi [5] | pKi [6] | inhibition [7] | Emax [8] | inhibition [9] | inhibition [10] | pEC50 [11] | inhibition [12] | inhibition [13] | inhibition [14] | inhibition [15] | inhibition [16] | inhibition (Homo sapiens) | pKi [17] | pKi [18] | inhibition [19] | Structure (SMILES)
1 | < 50% | 100% | < 50% | 8.10 | 6.65 | 6.79 | < 50% | 97.2% | < 50% | < 50% | 8.05 | < 50% | < 50% | < 50% | < 50% | < 50% | < 50% | 6.75 | 7.32 | < 50% | COc1ccc(C2NCCc3c2[nH]c2ccc(Cl)cc32)c(O)c1 (stereo not drawn)
2 | < 50% | 102% | < 50% | 7.60 | 6.60 | 7.15 | < 50% | 105% | < 50% | < 50% | 8.99 | < 50% | < 50% | < 50% | < 50% | < 50% | < 50% | 6.64 | 7.16 | < 50% | COc1ccc(C2NCCc3c2[nH]c2ccc(F)cc32)c(O)c1 (stereo not drawn)
3 | < 50% | 98.4% | < 50% | 8.60 | 6.95 | 7.28 | < 50% | 97.5% | < 50% | < 50% | 9.30 | < 50% | < 50% | < 50% | < 50% | < 50% | < 50% | 7.16 | 7.54 | < 50% | COc1cc(OC)c(C2NCCc3c2[nH]c2ccc(Cl)cc32)cc1OC (stereo not drawn)
4 | < 50% | 97.1% | < 50% | 6.60 | 5.61 | – | < 50% | 111% | < 50% | < 50% | 7.70 | < 50% | < 50% | < 50% | – | < 50% | < 50% | 5.55 | 6.28 | < 50% | COc1cc(OC)c(C2NCCc3c2[nH]c2ccc(F)cc32)cc1OC (stereo not drawn)
